Measurements as given in ChEMBL document CHEMBL1909294, “Translating clinical findings into knowledge in drug safety evaluation--drug induced liver injury prediction system (DILIps)” (PLoS Comput Biol, 2011).

Tests used:
[1] = tested on: Hepatotoxicity;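 as to HepSE Combined Scores: combined hepatic side effect score as listed in the training data of the Drug Induced Liver Injury Prediction System (DILIps)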;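 as to HepSE bilirubinemia: bilirubinemia hepatic side effect score drawn from the DILIps training data, a prediction system for drug-induced liver injury; call rule not given here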;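 as to HepSE cholecystitis: Cholecystitis-related hepatic side effect score drawn from the DILIps (drug-induced liver injury prediction) training data set; call rule not given here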;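 as to HepSE cholelithiasis: hepatic side effect score for cholelithiasis, drawn from the DILIps training data for predicting drug-induced liver injury; call rule not given here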;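 as to HepSE elevated liver function tests: hepatic side effect score for raised liver function tests, as recorded in the DILIps training set used for predicting drug-induced liver injury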; as to HepSE hepatic failure: call rule not given here;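 as to HepSE hepatomegaly: hepatic side effect score for hepatomegaly, taken from the training set of the DILIps drug-induced liver injury prediction system; call rule not given here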
[2] = tested on: Hepatotoxicity; remark: listed apart in the source;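 as to HepSE Combined Scores: combined hepatic side effect score as listed in the training data of the Drug Induced Liver Injury Prediction System (DILIps)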;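 as to HepSE bilirubinemia: bilirubinemia hepatic side effect score drawn from the DILIps training data, a prediction system for drug-induced liver injury; call rule not given here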;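 as to HepSE cholecystitis: Cholecystitis-related hepatic side effect score drawn from the DILIps (drug-induced liver injury prediction) training data set; call rule not given here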;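 as to HepSE cholelithiasis: hepatic side effect score for cholelithiasis, drawn from the DILIps training data for predicting drug-induced liver injury; call rule not given here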;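 as to HepSE elevated liver function tests: hepatic side effect score for raised liver function tests, as recorded in the DILIps training set used for predicting drug-induced liver injury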; as to HepSE hepatic failure: call rule not given here
[3] = tested on: Hepatotoxicity; remark: listed apart in the source;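 as to HepSE Combined Scores: combined hepatic side effect score as listed in the training data of the Drug Induced Liver Injury Prediction System (DILIps)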;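 as to HepSE bilirubinemia: bilirubinemia hepatic side effect score drawn from the DILIps training data, a prediction system for drug-induced liver injury; call rule not given here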;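 as to HepSE cholecystitis: Cholecystitis-related hepatic side effect score drawn from the DILIps (drug-induced liver injury prediction) training data set; call rule not given here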;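 as to HepSE cholelithiasis: hepatic side effect score for cholelithiasis, drawn from the DILIps training data for predicting drug-induced liver injury; call rule not given here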;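 as to HepSE elevated liver function tests: hepatic side effect score for raised liver function tests, as recorded in the DILIps training set used for predicting drug-induced liver injury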; as to HepSE hepatic failure: call rule not given here
[4] = tested on: Hepatotoxicity; remark: listed apart in the source;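 as to HepSE Combined Scores: combined hepatic side effect score as listed in the training data of the Drug Induced Liver Injury Prediction System (DILIps)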;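 as to HepSE bilirubinemia: bilirubinemia hepatic side effect score drawn from the DILIps training data, a prediction system for drug-induced liver injury; call rule not given here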;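 as to HepSE cholecystitis: Cholecystitis-related hepatic side effect score drawn from the DILIps (drug-induced liver injury prediction) training data set; call rule not given here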;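 as to HepSE cholelithiasis: hepatic side effect score for cholelithiasis, drawn from the DILIps training data for predicting drug-induced liver injury; call rule not given here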;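 as to HepSE elevated liver function tests: hepatic side effect score for raised liver function tests, as recorded in the DILIps training set used for predicting drug-induced liver injury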; as to HepSE hepatic failure: call rule not given here
[5] = tested on: Hepatotoxicity; remark: listed apart in the source; as to HepSE hepatic failure: call rule not given here
[6] = tested on: Hepatotoxicity; remark: listed apart in the source; as to HepSE hepatic failure: call rule not given here
[7] = tested on: Hepatotoxicity; remark: listed apart in the source
[8] = tested on: Hepatotoxicity; remark: listed apart in the source
[9] = tested on: Hepatotoxicity; remark: listed apart in the source
[10] = tested on: Hepatotoxicity; remark: listed apart in the source
[11] = tested on: Hepatotoxicity; remark: listed apart in the source
[12] = tested on: Hepatotoxicity; remark: listed apart in the source
[13] = tested on: Hepatotoxicity; remark: listed apart in the source
[14] = tested on: Hepatotoxicity; remark: listed apart in the source

Compound | HepSE_elevated liver function tests [1] | HepSE_bilirubinemia [2] | HepSE_cholecystitis [3] | HepSE_hepatic necrosis [4] | HepSE_hepatic failure [5] | HepSE_Combined Scores [6] | HepSE_cholelithiasis [7] | HepSE_hepatomegaly [8] | HepSE_cirrhosis [9] | HepSE_liver function tests abnormal [10] | HepSE_hepatitis [11] | HepSE_jaundice [12] | HepSE_liver fatty [13] | HepSE_liver disease [14] | also measured
CC(=O)OCC(=O)[C@@]12OC3(CCCC3)O[C@@H]1C[C@H]1[C@@H]3CCC4=CC(=O)C=C[C@]4(C)[C@@]3(F)[C@@H](O)C[C@@]12C [AMCINONIDE] | 0 | 0 | 0 | 0 | 0 | 0 | 0 | 0 | 0 | 0 | 0 | 0 | 0 | 0 | –
NCCCNCCSP(=O)(O)O [AMIFOSTINE] | – | – | – | – | – | – | – | – | – | – | – | – | – | – | HepSE_elevated liver function tests ([1]; Liver): 0; HepSE_bilirubinemia ([2]; Liver): 0; HepSE_cholecystitis ([3]; Liver): 0; HepSE_hepatic necrosis ([4]; Liver): 0; HepSE_hepatic failure ([5]; Liver): 0; HepSE_Combined Scores ([6]; Liver): 0; HepSE_cholelithiasis ([7]; Liver): 0; HepSE_hepatomegaly ([8]; Liver): 0; HepSE_cirrhosis ([9]; Liver): 0; HepSE_liver function tests abnormal ([10]; Liver): 0; HepSE_hepatitis ([11]; Liver): 0; HepSE_jaundice ([12]; Liver): 0; HepSE_liver fatty ([13]; Liver): 0; HepSE_liver disease ([14]; Liver): 0
NCC[C@H](O)C(=O)N[C@@H]1C[C@H](N)[C@@H](O[C@H]2O[C@H](CN)[C@@H](O)[C@H](O)[C@H]2O)[C@H](O)[C@H]1O[C@H]1O[C@H](CO)[C@@H](O)[C@H](N)[C@H]1O [AMIKACIN] | 0 | 0 | 0 | 0 | 0 | 0 | 0 | 0 | 0 | 0 | 0 | 0 | 0 | 0 | –
N=C(N)NC(=O)c1nc(Cl)c(N)nc1N [AMILORIDE] | 0 | 0 | 0 | 0 | 0 | 2 | 0 | 0 | 0 | 0 | 0 | 1 | 0 | 1 | –
NCCCCCC(=O)O [AMINOCAPROIC ACID] | 0 | 0 | 0 | 0 | 0 | 0 | 0 | 0 | 0 | 0 | 0 | 0 | 0 | 0 | –
CCC1(c2ccc(N)cc2)CCC(=O)NC1=O (configuration not stated) [AMINOGLUTETHIMIDE] | 0 | 0 | 0 | 0 | 0 | 0 | 0 | 0 | 0 | 0 | 0 | 0 | 0 | 0 | –
Nc1ccc(C(=O)NCC(=O)O)cc1 [AMINOHIPPURIC ACID] | 0 | 0 | 0 | 0 | 0 | 0 | 0 | 0 | 0 | 0 | 0 | 0 | 0 | 0 | –
NCC(=O)CCC(=O)O [AMINOLEVULINIC ACID] | 0 | 0 | 0 | 0 | 0 | 0 | 0 | 0 | 0 | 0 | 0 | 0 | 0 | 0 | –
Cn1c(=O)c2[nH]cnc2n(C)c1=O.Cn1c(=O)c2[nH]cnc2n(C)c1=O.NCCN [AMINOPHYLLINE] | 0 | 0 | 0 | 0 | 0 | 0 | 0 | 0 | 0 | 0 | 0 | 0 | 0 | 0 | –
CN(C)CCC=C1c2ccccc2CCc2ccccc21 [AMITRIPTYLINE] | 0 | 0 | 0 | 0 | 1 | 3 | 0 | 0 | 0 | 0 | 1 | 1 | 0 | 0 | –
CCOC(=O)C1=C(COCCN)NC(C)=C(C(=O)OC)C1c1ccccc1Cl (configuration not stated) [AMLODIPINE] | 0 | 0 | 0 | 0 | 0 | 2 | 0 | 0 | 0 | 0 | 1 | 1 | 0 | 0 | –
Cl.N [AMMONIUM CHLORIDE] | 0 | 0 | 0 | 0 | 0 | 0 | 0 | 0 | 0 | 0 | 0 | 0 | 0 | 0 | –
Clc1ccc2c(c1)C(N1CCNCC1)=Nc1ccccc1O2 [AMOXAPINE] | 0 | 0 | 0 | 0 | 0 | 2 | 0 | 0 | 0 | 0 | 1 | 1 | 0 | 0 | –
